Assay results published in patent US20240092758A1, “IMIDAZOLO INDAZOLE COMPOUNDS AS JAK INHIBITORS” (Theravance Biopharma R&D IP, LLC, priority 2021, published 2024).

Columns and labels:
[1] = system: IL-13 induced STAT6 phosphorylation in BEAS-2B human lung epithelial cells; test: Cellular JAKI potency assay (BEAS-2B); assay type: cell-based; conditions: BEAS-2B cells; for IC50: Homo sapiens, BEAS-2B, read-out: BEAS2B pIC50 (converted)
Method in brief: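 BEAS-2B cells were preincubated with compound (0.1% DMSO) in HBSS/HEPES/BSA for 1 h at 37 °C, then stimulated with IL-13 (80 ng/mL before addition) for 30 min. After lysis, pSTAT6 (Tyr641) was quantified by AlphaLISA SureFire; IC50 from a 4-parameter fit of percent inhibition, reported as pIC50.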

JAK1 = JAK1 (Homo sapiens (Human), UniProt P23458); test: Biochemical JAK kinase assay (LanthaScreen), JAK1; conditions: for Ki: read-out: JAK1 pKi (converted)
Method in brief: (§1)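 LanthaScreen format: phospho-STAT1 (pTyr701) detected with 2 nM Tb antibody after 10 mM EDTA quench. Kinase step used Km-level ATP and 200 nM STAT1 peptide, 1 h at ambient after 1 h pre-incubation. Inhibition fitted to IC50, reported as pKi.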

JAK2 = JAK2 (Homo sapiens (Human), UniProt O60674); test: Biochemical JAK kinase assay (LanthaScreen), JAK2; conditions: for Ki: read-out: JAK2 pKi (converted)
Method in brief: as §1

JAK2, sequence (O60674 whole entry): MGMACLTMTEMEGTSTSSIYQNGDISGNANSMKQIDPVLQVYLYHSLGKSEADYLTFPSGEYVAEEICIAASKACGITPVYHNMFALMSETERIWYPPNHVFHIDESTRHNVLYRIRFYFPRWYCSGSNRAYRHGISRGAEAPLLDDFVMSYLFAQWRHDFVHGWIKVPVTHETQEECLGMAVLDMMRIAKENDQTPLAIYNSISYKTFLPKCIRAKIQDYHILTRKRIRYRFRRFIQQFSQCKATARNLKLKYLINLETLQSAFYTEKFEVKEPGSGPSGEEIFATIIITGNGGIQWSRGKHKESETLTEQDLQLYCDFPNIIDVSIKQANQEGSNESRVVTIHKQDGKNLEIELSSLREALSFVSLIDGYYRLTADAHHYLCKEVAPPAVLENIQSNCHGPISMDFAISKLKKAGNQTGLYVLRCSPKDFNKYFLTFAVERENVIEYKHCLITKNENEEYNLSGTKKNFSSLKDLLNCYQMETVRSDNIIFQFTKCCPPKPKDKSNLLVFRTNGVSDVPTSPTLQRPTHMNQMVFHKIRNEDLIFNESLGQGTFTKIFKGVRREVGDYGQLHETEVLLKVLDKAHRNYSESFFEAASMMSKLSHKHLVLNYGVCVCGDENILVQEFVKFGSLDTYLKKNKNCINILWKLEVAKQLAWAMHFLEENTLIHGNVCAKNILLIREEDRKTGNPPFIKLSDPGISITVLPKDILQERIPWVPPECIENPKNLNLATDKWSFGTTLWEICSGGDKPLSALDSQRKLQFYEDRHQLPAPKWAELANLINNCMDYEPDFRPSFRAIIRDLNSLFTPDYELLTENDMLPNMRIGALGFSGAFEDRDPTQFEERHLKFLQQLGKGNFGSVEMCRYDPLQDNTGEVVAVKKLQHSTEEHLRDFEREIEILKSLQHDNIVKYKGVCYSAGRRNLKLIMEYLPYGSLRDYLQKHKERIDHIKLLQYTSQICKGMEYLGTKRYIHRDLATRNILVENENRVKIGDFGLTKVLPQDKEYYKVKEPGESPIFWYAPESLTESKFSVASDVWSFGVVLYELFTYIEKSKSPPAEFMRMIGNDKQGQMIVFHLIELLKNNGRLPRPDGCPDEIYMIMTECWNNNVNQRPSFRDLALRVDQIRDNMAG
JAK1, sequence (P23458 whole entry): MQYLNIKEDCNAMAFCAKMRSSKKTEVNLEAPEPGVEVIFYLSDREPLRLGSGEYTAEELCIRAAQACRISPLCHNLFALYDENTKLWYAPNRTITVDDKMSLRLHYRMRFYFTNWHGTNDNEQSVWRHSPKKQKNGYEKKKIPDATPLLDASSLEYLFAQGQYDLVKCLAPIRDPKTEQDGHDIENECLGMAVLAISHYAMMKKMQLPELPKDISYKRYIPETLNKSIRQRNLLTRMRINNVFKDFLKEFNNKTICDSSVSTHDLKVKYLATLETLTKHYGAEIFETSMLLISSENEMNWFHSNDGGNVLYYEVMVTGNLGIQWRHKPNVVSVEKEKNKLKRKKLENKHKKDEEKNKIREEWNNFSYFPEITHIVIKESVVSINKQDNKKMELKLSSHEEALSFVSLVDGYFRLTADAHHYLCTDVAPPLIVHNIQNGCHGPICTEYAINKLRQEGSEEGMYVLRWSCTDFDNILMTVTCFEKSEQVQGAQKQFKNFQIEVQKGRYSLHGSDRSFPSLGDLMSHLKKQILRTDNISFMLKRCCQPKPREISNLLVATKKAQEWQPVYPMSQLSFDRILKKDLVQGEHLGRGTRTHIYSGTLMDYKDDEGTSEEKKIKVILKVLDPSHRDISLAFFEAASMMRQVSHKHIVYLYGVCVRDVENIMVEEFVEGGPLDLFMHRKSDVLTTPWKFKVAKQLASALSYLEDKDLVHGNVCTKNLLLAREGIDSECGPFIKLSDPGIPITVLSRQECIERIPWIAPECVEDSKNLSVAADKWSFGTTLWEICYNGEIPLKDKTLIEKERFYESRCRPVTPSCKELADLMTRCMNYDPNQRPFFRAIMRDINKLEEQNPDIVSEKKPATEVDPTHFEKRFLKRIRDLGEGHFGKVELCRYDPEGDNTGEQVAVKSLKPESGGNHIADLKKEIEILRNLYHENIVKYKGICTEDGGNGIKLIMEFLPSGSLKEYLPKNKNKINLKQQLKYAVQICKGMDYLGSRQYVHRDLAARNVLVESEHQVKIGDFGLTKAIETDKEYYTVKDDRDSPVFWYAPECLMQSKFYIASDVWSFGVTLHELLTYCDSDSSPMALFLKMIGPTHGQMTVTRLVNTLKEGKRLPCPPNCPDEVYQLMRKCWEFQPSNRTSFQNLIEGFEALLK

| Structure (SMILES) | IC50 [1] [nM] | Ki (JAK1) [nM] | Ki (JAK2) [nM] | JAK1 pKi (JAK1) | JAK2 pKi (JAK2) | BEAS2B pIC50 [1] |
| --- | --- | --- | --- | --- | --- | --- |
| CCc1cc(O)ccc1-c1ccc2c(-c3nc(C4=CCN(CCN5CCNC5=O)C4)c[nH]3)n[nH]c2c1 [Example 127] | 10 to 31.6 | 0.1 to 1 | 0.1 to 1 |  |  |  |
| CCc1cc(O)ccc1-c1ccc2c(-c3nc(C4=CCN([C@H]5CC[C@H](O)CC5)C4)c[nH]3)n[nH]c2c1 [Example 128] | 3.16 to 10 |  |  | A (A represents a pKi value ≥10 (Ki≤0.1 nM)) | A (A represents a pKi value ≥10 (Ki≤0.1 nM)) |  |
| CCc1cc(O)ccc1-c1ccc2c(-c3nc(C4=CCN([C@H]5CC[C@@H](O)CC5)C4)c[nH]3)n[nH]c2c1F [Example 129] |  |  |  | A (A represents a pKi value ≥10 (Ki≤0.1 nM)) | A (A represents a pKi value ≥10 (Ki≤0.1 nM)) | A (A represents a pIC50 value between 8 (included) and 8.5) |
| CCc1cc(O)ccc1-c1ccc2c(-c3nc(C4=CCN(Cc5ccccc5)CC4)c[nH]3)n[nH]c2c1 [Example 130] | 31.6 to 100 | 0.1 to 1 | 1 to 10 |  |  |  |
| CCc1cc(O)ccc1-c1ccc2c(-c3nc(C4=CCN(Cc5cnc[nH]5)CC4)c[nH]3)n[nH]c2c1 [Example 131] | 10 to 31.6 |  |  | A (A represents a pKi value ≥10 (Ki≤0.1 nM)) | A (A represents a pKi value ≥10 (Ki≤0.1 nM)) |  |
| CCc1cc(O)ccc1-c1ccc2c(-c3nc(C4=CCN(Cc5cn[nH]c5)CC4)c[nH]3)n[nH]c2c1 [Example 132] | 3.16 to 10 |  |  | A (A represents a pKi value ≥10 (Ki≤0.1 nM)) | A (A represents a pKi value ≥10 (Ki≤0.1 nM)) |  |
| CCc1cc(O)ccc1-c1ccc2c(-c3nc(C4=CCN(Cc5cnn[nH]5)CC4)c[nH]3)n[nH]c2c1 [Example 133] | 10 to 31.6 | 0.1 to 1 |  |  | A (A represents a pKi value ≥10 (Ki≤0.1 nM)) |  |
| CCc1cc(O)ccc1-c1ccc2c(-c3nc(C4=CCN(Cc5ccccc5)CC4)c[nH]3)n[nH]c2c1F [Example 134] | 100 to 316 | 1 to 10 | 1 to 10 |  |  |  |
| CCc1cc(O)ccc1-c1ccc2c(-c3nc(C4=CCN(CCc5ccccc5)CC4)c[nH]3)n[nH]c2c1F [Example 135] | 100 to 316 | 1 to 10 | 1 to 10 |  |  |  |
| CCc1cc(O)ccc1-c1ccc2c(-c3nc(C4=CCN(Cc5cnc[nH]5)CC4)c[nH]3)n[nH]c2c1F [Example 136] | 31.6 to 100 | 0.1 to 1 | 0.1 to 1 |  |  |  |
| CCc1cc(O)ccc1-c1ccc2c(-c3nc(C4=CCN(Cc5ccn[nH]5)CC4)c[nH]3)n[nH]c2c1F [Example 137] | 10 to 31.6 | 0.1 to 1 | 0.1 to 1 |  |  |  |
| CCc1cc(O)ccc1-c1ccc2c(-c3nc(C4=CCCN(Cc5ccccc5)C4)c[nH]3)n[nH]c2c1 [Example 138] | 100 to 316 | 0.1 to 1 | 0.1 to 1 |  |  |  |
| CCc1cc(O)ccc1-c1ccc2c(-c3nc(C4=CCCN(CCc5ccccc5)C4)c[nH]3)n[nH]c2c1 [Example 139] | 100 to 316 | 1 to 10 | 0.1 to 1 |  |  |  |
| CCc1cc(O)ccc1-c1ccc2c(-c3nc(C4=CCN(Cc5ccccc5)C4)c[nH]3)n[nH]c2c1 [Example 140] | 31.6 to 100 | 0.1 to 1 | 0.1 to 1 |  |  |  |
| CCc1cc(O)ccc1-c1ccc2c(-c3nc(C4=CCN(CCc5ccccc5)C4)c[nH]3)n[nH]c2c1 [Example 141] | 100 to 316 | 0.1 to 1 | 0.1 to 1 |  |  |  |
| CCc1cc(O)ccc1-c1ccc2c(-c3nc(C4=CCN(Cc5cnc[nH]5)C4)c[nH]3)n[nH]c2c1 [Example 142] | 10 to 31.6 |  |  | A (A represents a pKi value ≥10 (Ki≤0.1 nM)) | A (A represents a pKi value ≥10 (Ki≤0.1 nM)) |  |
| CCc1cc(O)ccc1-c1ccc2c(-c3nc(C4=CCN(Cc5ccn[nH]5)C4)c[nH]3)n[nH]c2c1 [Example 143] | 10 to 31.6 |  |  | A (A represents a pKi value ≥10 (Ki≤0.1 nM)) | A (A represents a pKi value ≥10 (Ki≤0.1 nM)) |  |
| CCc1cc(O)ccc1-c1ccc2c(-c3nc(C4=CCN(Cc5c[nH]nn5)C4)c[nH]3)n[nH]c2c1 [Example 144] | 10 to 31.6 |  |  | A (A represents a pKi value ≥10 (Ki≤0.1 nM)) | A (A represents a pKi value ≥10 (Ki≤0.1 nM)) |  |
| CCc1cc(O)ccc1-c1ccc2c(-c3nc(C4=CCN(Cc5cn[nH]c5)C4)c[nH]3)n[nH]c2c1F [Example 145] | 10 to 31.6 |  |  | A (A represents a pKi value ≥10 (Ki≤0.1 nM)) | A (A represents a pKi value ≥10 (Ki≤0.1 nM)) |  |
| CCc1cc(O)ccc1-c1ccc2c(-c3nc(C4=CCN(Cc5c[nH]nn5)C4)c[nH]3)n[nH]c2c1F [Example 146] | 10 to 31.6 | 0.1 to 1 | 0.1 to 1 |  |  |  |
| CCc1cc(O)ccc1-c1ccc2c(-c3nc(C4=CCN(C(C)=O)CC4)c[nH]3)n[nH]c2c1 [Example 147] | 10 to 31.6 | 0.1 to 1 | 0.1 to 1 |  |  |  |
| CCc1cc(O)ccc1-c1ccc2c(-c3nc(C4=CCN(S(C)(=O)=O)CC4)c[nH]3)n[nH]c2c1 [Example 148] | 10 to 31.6 | 0.1 to 1 | 0.1 to 1 |  |  |  |

| Structure (SMILES) | IC50 [1] [nM] | Ki (JAK1) [nM] | Ki (JAK2) [nM] | JAK1 pKi (JAK1) | JAK2 pKi (JAK2) | BEAS2B pIC50 [1] |
| --- | --- | --- | --- | --- | --- | --- |
| CCc1cc(O)ccc1-c1ccc2c(-c3nc(C4=CCN(C(=O)OC)CC4)c[nH]3)n[nH]c2c1 [Example 149] | 31.6 to 100 | 1 to 10 | 1 to 10 |  |  |  |
| CCc1cc(O)ccc1-c1ccc2c(-c3nc(C4=CCN(C(=O)NC)CC4)c[nH]3)n[nH]c2c1 [Example 150] | 10 to 31.6 | 0.1 to 1 | 0.1 to 1 |  |  |  |
| CCc1cc(O)ccc1-c1ccc2c(-c3nc(C4=CCN(C(=O)c5ccccc5)CC4)c[nH]3)n[nH]c2c1 [Example 151] | 31.6 to 100 | 1 to 10 | 1 to 10 |  |  |  |
| CCc1cc(O)ccc1-c1ccc2c(-c3nc(C4=CCN(C(C)=O)CC4)c[nH]3)n[nH]c2c1F [Example 154] | 10 to 31.6 | 0.1 to 1 | 0.1 to 1 |  |  |  |
| CCc1cc(O)ccc1-c1ccc2c(-c3nc(C4=CCN(S(C)(=O)=O)CC4)c[nH]3)n[nH]c2c1F [Example 155] | 10 to 31.6 | 1 to 10 | 0.1 to 1 |  |  |  |
| CCc1cc(O)ccc1-c1ccc2c(-c3nc(C4=CCN(C(=O)OC)CC4)c[nH]3)n[nH]c2c1F [Example 156] | 31.6 to 100 | 1 to 10 | 0.1 to 1 |  |  |  |
| CCc1cc(O)ccc1-c1ccc2c(-c3nc(C4=CCCN(C(C)=O)C4)c[nH]3)n[nH]c2c1 [Example 159] | 10 to 31.6 | 0.1 to 1 | 0.1 to 1 |  |  |  |
| CCc1cc(O)ccc1-c1ccc2c(-c3nc(C4=CCCN(S(C)(=O)=O)C4)c[nH]3)n[nH]c2c1 [Example 160] | 10 to 31.6 | 0.1 to 1 | 0.1 to 1 |  |  |  |
| CCc1cc(O)ccc1-c1ccc2c(-c3nc(C4=CCCN(C(=O)OC)C4)c[nH]3)n[nH]c2c1 [Example 161] | 31.6 to 100 | 0.1 to 1 | 1 to 10 |  |  |  |
| CCc1cc(O)ccc1-c1ccc2c(-c3nc(C4=CCCN(C(=O)NC)C4)c[nH]3)n[nH]c2c1 [Example 162] | 31.6 to 100 | 0.1 to 1 | 0.1 to 1 |  |  |  |
| CCc1cc(O)ccc1-c1ccc2c(-c3nc(C4=CCCN(C(=O)c5ccccc5)C4)c[nH]3)n[nH]c2c1 [Example 163] | 31.6 to 100 | 1 to 10 | 1 to 10 |  |  |  |
| CCc1cc(O)ccc1-c1ccc2c(-c3nc(C4=CCCN(C(=O)CN)C4)c[nH]3)n[nH]c2c1 [Example 164] | 10 to 31.6 | 0.1 to 1 | 0.1 to 1 |  |  |  |
| CCc1cc(O)ccc1-c1ccc2c(-c3nc(C4=CCN(C(C)=O)C4)c[nH]3)n[nH]c2c1 [Example 166] | 3.16 to 10 |  |  | A (A represents a pKi value ≥10 (Ki≤0.1 nM)) | A (A represents a pKi value ≥10 (Ki≤0.1 nM)) |  |
| CCc1cc(O)ccc1-c1ccc2c(-c3nc(C4=CCN(S(C)(=O)=O)C4)c[nH]3)n[nH]c2c1 [Example 167] | 3.16 to 10 | 0.1 to 1 | 1 to 10 |  |  |  |
| CCc1cc(O)ccc1-c1ccc2c(-c3nc(C4=CCN(C(=O)OC)C4)c[nH]3)n[nH]c2c1 [Example 168] | 10 to 31.6 | 0.1 to 1 | 0.1 to 1 |  |  |  |
| CCc1cc(O)ccc1-c1ccc2c(-c3nc(C4=CCN(C(=O)NC)C4)c[nH]3)n[nH]c2c1 [Example 169] | 31.6 to 100 | 0.1 to 1 |  |  | A (A represents a pKi value ≥10 (Ki≤0.1 nM)) |  |
| CCc1cc(O)ccc1-c1ccc2c(-c3nc(C4=CCN(C(C)=O)C4)c[nH]3)n[nH]c2c1F [Example 171] | 10 to 31.6 | 0.1 to 1 | 0.1 to 1 |  |  |  |
| CCc1cc(O)ccc1-c1ccc2c(-c3nc(C4=CCN(S(C)(=O)=O)C4)c[nH]3)n[nH]c2c1F [Example 172] | 10 to 31.6 | 1 to 10 | 0.1 to 1 |  |  |  |
| CCc1cc(O)ccc1-c1ccc2c(-c3nc(C4=CCN(C[C@H]5COCCN5)CC4)c[nH]3)n[nH]c2c1F [Example 190] | 31.6 to 100 | 0.1 to 1 | 0.1 to 1 |  |  |  |
| CCc1cc(O)ccc1-c1ccc2c(-c3nc(C4=CCN(C[C@@H]5COCCN5)C4)c[nH]3)n[nH]c2c1 [Example 200] | 10 to 31.6 | 0.1 to 1 |  |  | A (A represents a pKi value ≥10 (Ki≤0.1 nM)) |  |
| CCc1cc(O)ccc1-c1ccc2c(-c3nc(C4=CC5COCC(C4)N5)c[nH]3)n[nH]c2c1F (stereo not drawn) [Example 228] | 10 to 31.6 | 0.1 to 1 | 0.1 to 1 |  |  |  |
| CCc1cc(O)ccc1-c1ccc2c(-c3nc(C4=CCC5(CNC5)OC4)c[nH]3)n[nH]c2c1 [Example 229] | 31.6 to 100 | 0.1 to 1 |  |  | A (A represents a pKi value ≥10 (Ki≤0.1 nM)) |  |
